Columns and labels:
Format in all cases: functional
Settings in all cases: time 18-20 hrs
Escherichia coli [1] = test: Antibacterial activity against Escherichia coli 14-4 assessed as inhibition of bacterial growth measured after 18 to 20 hrs by broth microdilution method
Escherichia coli [2] = test: Antibacterial activity against Escherichia coli 14-2 assessed as inhibition of bacterial growth measured after 18 to 20 hrs by broth microdilution method
Klebsiella pneumoniae [3] = test: Antibacterial activity against Klebsiella pneumoniae 15-1 assessed as inhibition of bacterial growth measured after 18 to 20 hrs by broth microdilution method
Acinetobacter baumannii [4] = test: Antibacterial activity against Acinetobacter baumannii 17-8 assessed as inhibition of bacterial growth measured after 18 to 20 hrs by broth microdilution method
Escherichia coli [5] = test: Antibacterial activity against Escherichia coli ATCC 35218 assessed as inhibition of bacterial growth measured after 18 to 20 hrs by broth microdilution method
Klebsiella pneumoniae [6] = test: Antibacterial activity against Klebsiella pneumoniae 15-4 assessed as inhibition of bacterial growth measured after 18 to 20 hrs by broth microdilution method
Klebsiella pneumoniae [7] = test: Antibacterial activity against Klebsiella pneumoniae 15-5 assessed as inhibition of bacterial growth measured after 18 to 20 hrs by broth microdilution method
Acinetobacter baumannii [8] = test: Antibacterial activity against Acinetobacter baumannii 17-2 assessed as inhibition of bacterial growth measured after 18 to 20 hrs by broth microdilution method
Pseudomonas aeruginosa [9] = test: Antibacterial activity against Pseudomonas aeruginosa 17-1 assessed as inhibition of bacterial growth measured after 18 to 20 hrs by broth microdilution method
Pseudomonas aeruginosa [10] = test: Antibacterial activity against Pseudomonas aeruginosa 19-5 assessed as inhibition of bacterial growth measured after 18 to 20 hrs by broth microdilution method

| Compound | MIC (Escherichia coli [1]) | MIC (Escherichia coli [2]) | MIC (Klebsiella pneumoniae [3]) | MIC (Acinetobacter baumannii [4]) | MIC (Escherichia coli [5]) | MIC (Klebsiella pneumoniae [6]) | MIC (Klebsiella pneumoniae [7]) | MIC (Acinetobacter baumannii [8]) | MIC (Pseudomonas aeruginosa [9]) | MIC (Pseudomonas aeruginosa [10]) |
| --- | --- | --- | --- | --- | --- | --- | --- | --- | --- | --- |
| Cc1nc(-c2ccc(SSC(C)C)cc2)ncc1C(=O)N[C@@H](CCN)C(=O)N(C)[C@@H]1C(=O)N[C@@H](C)C(=O)N[C@H](C(=O)NCC#N)Cc2ccc(OCCN)c(c2)-c2cc1ccc2OCCN.O=C(O)C(F)(F)F.O=C(O)C(F)(F)F.O=C(O)C(F)(F)F.O=C(O)C(F)(F)F | ≤ 0.03 µg/mL | 0.06 µg/mL | 0.06 µg/mL | 0.25 µg/mL | ≤ 0.03 µg/mL | 0.06 µg/mL | 0.06 µg/mL | 0.5 µg/mL | 4 µg/mL | 4 µg/mL |
| CCCCCCCSSCc1ccc(-c2ncc(C(=O)N[C@@H](CCN)C(=O)N(C)[C@@H]3C(=O)N[C@@H](C)C(=O)N[C@H](C(=O)NCC#N)Cc4ccc(OCCN)c(c4)-c4cc3ccc4OCCN)c(C)n2)cc1.O=C(O)C(F)(F)F.O=C(O)C(F)(F)F.O=C(O)C(F)(F)F.O=C(O)C(F)(F)F | 1 µg/mL | 1 µg/mL | 2 µg/mL | 2 µg/mL | 2 µg/mL | 2 µg/mL | 2 µg/mL | 2 µg/mL | 4 µg/mL | 4 µg/mL |
| Cc1nc(-c2ccc(C(C)(C)C)cc2)ncc1C(=O)N[C@@H](CCN)C(=O)N(C)[C@@H]1C(=O)N[C@@H](C)C(=O)N[C@H](C(=O)NCP(=O)(O)O)Cc2ccc(OCCN)c(c2)-c2cc1ccc2OCCN.Cl.Cl.Cl.Cl | 0.25 µg/mL | 1 µg/mL | 0.5 µg/mL | 4 µg/mL | 0.25 µg/mL | 0.5 µg/mL | 0.25 µg/mL | 8 µg/mL | 64 µg/mL | 64 µg/mL |
| CCSSCc1ccc(-c2ncc(C(=O)N[C@@H](CCN)C(=O)N(C)[C@@H]3C(=O)N[C@@H](C)C(=O)N[C@H](C(=O)NCC#N)Cc4ccc(OCCN)c(c4)-c4cc3ccc4OCCN)c(C)n2)cc1.O=C(O)C(F)(F)F.O=C(O)C(F)(F)F.O=C(O)C(F)(F)F.O=C(O)C(F)(F)F | ≤ 0.03 µg/mL | 0.06 µg/mL | 0.06 µg/mL | 0.5 µg/mL | ≤ 0.03 µg/mL | 0.125 µg/mL | 0.125 µg/mL | 1 µg/mL | 8 µg/mL | 16 µg/mL |
| Cc1nc(-c2ccc(CSSC(C)(C)C)cc2)nc(C)c1C(=O)N[C@@H](CCN)C(=O)N(C)[C@@H]1C(=O)N[C@@H](C)C(=O)N[C@H](C(=O)NCC#N)Cc2ccc(OCCN)c(c2)-c2cc1ccc2OCCN.O=C(O)C(F)(F)F.O=C(O)C(F)(F)F.O=C(O)C(F)(F)F.O=C(O)C(F)(F)F | 0.06 µg/mL | 0.06 µg/mL | 0.125 µg/mL | 0.5 µg/mL | ≤ 0.03 µg/mL | 0.125 µg/mL | 0.125 µg/mL | 0.5 µg/mL | 4 µg/mL | 4 µg/mL |
| Cc1cc(-c2ncc(C(=O)N[C@@H](CCN)C(=O)N(C)[C@@H]3C(=O)N[C@@H](C)C(=O)N[C@H](C(=O)NCC#N)Cc4ccc(OCCN)c(c4)-c4cc3ccc4OCCN)c(C)n2)ccc1CSSC(C)(C)C.O=C(O)C(F)(F)F.O=C(O)C(F)(F)F.O=C(O)C(F)(F)F.O=C(O)C(F)(F)F | 0.06 µg/mL | 0.125 µg/mL | 0.125 µg/mL | 1 µg/mL | ≤ 0.03 µg/mL | 0.25 µg/mL | 0.25 µg/mL | 1 µg/mL | 4 µg/mL | 4 µg/mL |
| Cc1nc(-c2ccc(CCCSSC(C)(C)C)cc2)ncc1C(=O)N[C@@H](CCN)C(=O)N(C)[C@@H]1C(=O)N[C@@H](C)C(=O)N[C@H](C(=O)NCC#N)Cc2ccc(OCCN)c(c2)-c2cc1ccc2OCCN.O=C(O)C(F)(F)F.O=C(O)C(F)(F)F.O=C(O)C(F)(F)F.O=C(O)C(F)(F)F | 0.25 µg/mL | 0.5 µg/mL | 0.5 µg/mL | 1 µg/mL | 0.5 µg/mL | 0.5 µg/mL | 0.5 µg/mL | 1 µg/mL | 4 µg/mL | 2 µg/mL |
| Cc1nc(-c2ccc(CSSCC[Si](C)(C)C)cc2)ncc1C(=O)N[C@@H](CCN)C(=O)N(C)[C@@H]1C(=O)N[C@@H](C)C(=O)N[C@H](C(=O)NCC#N)Cc2ccc(OCCN)c(c2)-c2cc1ccc2OCCN.O=C(O)C(F)(F)F.O=C(O)C(F)(F)F.O=C(O)C(F)(F)F.O=C(O)C(F)(F)F | 1 µg/mL | 0.5 µg/mL | 1 µg/mL | 1 µg/mL | 0.25 µg/mL | 1 µg/mL | 1 µg/mL | 1 µg/mL | 4 µg/mL | 4 µg/mL |
| C=CC(=O)N[C@@H]1Cc2ccc(OCCN)c(c2)-c2cc(ccc2OCCN)[C@H](N(C)C(=O)[C@H](CCN)NC(=O)c2cnc(-c3ccc(C(C)(C)C)cc3)nc2C)C(=O)N[C@@H](C)C(=O)N1.O=C(O)C(F)(F)F.O=C(O)C(F)(F)F.O=C(O)C(F)(F)F.O=C(O)C(F)(F)F | 64 µg/mL | 64 µg/mL | 32 µg/mL | 64 µg/mL | 64 µg/mL | 64 µg/mL | 32 µg/mL | > 64 µg/mL | > 64 µg/mL | > 64 µg/mL |

Continued, values first:

| MIC (Escherichia coli [1]) | MIC (Escherichia coli [2]) | MIC (Klebsiella pneumoniae [3]) | MIC (Acinetobacter baumannii [4]) | MIC (Escherichia coli [5]) | MIC (Klebsiella pneumoniae [6]) | MIC (Klebsiella pneumoniae [7]) | MIC (Acinetobacter baumannii [8]) | MIC (Pseudomonas aeruginosa [9]) | MIC (Pseudomonas aeruginosa [10]) | Compound |
| --- | --- | --- | --- | --- | --- | --- | --- | --- | --- | --- |
| 0.06 µg/mL | ≤ 0.03 µg/mL | ≤ 0.03 µg/mL | 2 µg/mL | ≤ 0.03 µg/mL | 0.125 µg/mL | ≤ 0.03 µg/mL | 4 µg/mL | > 64 µg/mL | 64 µg/mL | Cc1nc(-c2ccc(C(C)(C)C)cc2)ncc1C(=O)N[C@@H](CCN)C(=O)N(C)[C@@H]1C(=O)N[C@@H](C)C(=O)N[C@H](C(=O)NCC=O)Cc2ccc(OCCN)c(c2)-c2cc1ccc2OCCN.Cl.Cl.Cl.Cl |
| ≤ 0.03 µg/mL | ≤ 0.03 µg/mL | 0.25 µg/mL | 0.5 µg/mL | ≤ 0.03 µg/mL | 0.25 µg/mL | 0.125 µg/mL | 0.5 µg/mL | 4 µg/mL | 4 µg/mL | Cc1nc(-c2ccc([C@@H](C)SSC(C)(C)C)cc2)ncc1C(=O)N[C@@H](CCN)C(=O)N(C)[C@@H]1C(=O)N[C@@H](C)C(=O)N[C@H](C(=O)NCC#N)Cc2ccc(OCCN)c(c2)-c2cc1ccc2OCCN.O=C(O)C(F)(F)F.O=C(O)C(F)(F)F.O=C(O)C(F)(F)F.O=C(O)C(F)(F)F |
| 64 µg/mL | 64 µg/mL | > 64 µg/mL | > 64 µg/mL | 32 µg/mL | > 64 µg/mL | > 64 µg/mL | > 64 µg/mL | > 64 µg/mL | > 64 µg/mL | Cc1nc(-c2ccc(C(C)(C)C)cc2)ncc1C(=O)N[C@@H](CCN)C(=O)N(C)[C@@H]1C(=O)N[C@@H](C)C(=O)N[C@H](NC(=O)NCC#N)Cc2ccc(OCCN)c(c2)-c2cc1ccc2OCCN.O=C(O)C(F)(F)F.O=C(O)C(F)(F)F.O=C(O)C(F)(F)F.O=C(O)C(F)(F)F |
| 0.125 µg/mL | 0.06 µg/mL | ≤ 0.03 µg/mL | 2 µg/mL | ≤ 0.03 µg/mL | 0.06 µg/mL | ≤ 0.03 µg/mL | 8 µg/mL | > 64 µg/mL | > 64 µg/mL | Cc1nc(-c2ccc(C(C)(C)C)cc2)ncc1C(=O)N[C@@H](CCN)C(=O)N(C)[C@@H]1C(=O)N[C@@H](C)C(=O)N[C@H](C(=O)OCC=O)Cc2ccc(OCCN)c(c2)-c2cc1ccc2OCCN.Cl.Cl.Cl.Cl |
| 64 µg/mL | 64 µg/mL | > 64 µg/mL | > 64 µg/mL | 61 µg/mL | > 64 µg/mL | > 64 µg/mL | > 64 µg/mL | > 64 µg/mL | > 64 µg/mL | Cc1nc(-c2ccc(C(C)(C)C)cc2)ncc1C(=O)N[C@@H](CCN)C(=O)N(C)[C@H]1Cc2ccc(OCCN)c(c2)-c2cc(ccc2OCCN)C[C@@H](C(=O)NCC#N)NC(=O)[C@H](C)NC1=O.Cl.Cl.Cl.Cl |

— ChEMBL document CHEMBL5518248, “Design, Synthesis, and Biological Evaluation of Novel Arylomycins against Multidrug-Resistant Gram-Negative Bacteria” (J Med Chem, 2024)
